Results reported in patent publication US20220168299A1, “PHARMACEUTICAL COMPOSITION COMPRISING TBN, OR SALT OR HYDRATE THEREOF, AND PREPARATION METHOD THEREOF” (GUANGZHOU MAGPIE PHARMACEUTICALS CO., LTD., priority 2019, published 2022).
Values joined by “and” are separate entries in the source; they are usually repeats but may differ in a detail not shown here. Identical values can stand only once. Like-named read-outs stand apart in the source and are kept apart here.

What was measured:
[1] = Bioavailability test: pharmacokinetic study of TBN (API) and enteric-coated tablets in beagle dogs; format: in vivo; conditions: 175 mg, oral gavage; for MRT last: read-out: MRT (0-t); for Vd/F: read-out: Vz/F
Procedure: (10) Bioavailability test: Pharmacokinetic study of TBN (API) and enteric-coated tablets in beagle dogs
6 beagle dogs were randomly divided into 2 groups, each group having 3 animals. Each test animal was given with TBN (API) at a dosage of 175 mg, or 1 enteric-coated tablet with a specification of 175 mg prepared following the method in Example 17 by oral gavage. The blood sample was collected at various times (0.08, 0.25, 0.5, 1, 1.5, 2, 4, 8, 12, and 24 h), and analyzed by LC-MS/MS. A drug concentration-time curve was plotted to calculate the pharmacokinetic parameters.

[2] = Pharmacokinetic study of TBN enteric-coated tablets (Example 25 method) and intravenous TBN in beagle dogs; format: in vivo
Procedure: (11) Pharmacokinetic study of TBN enteric-coated tablets prepared following the method described in Example 25
24 beagle dogs (male:female 1:1) were randomly divided into 4 groups (each group having 3 female and 3 male animals). Animals in group A were injected intravenously with a TBN (API) solution at a dosage of 6 mg·kg^−1, and animals in groups B and D were respectively given with TBN enteric-coated tablets at a dosage of 100 and 900 mg·animal^−1 by oral gavage. Blood was taken from the animals in group A before and 0.083, 0.25, 0.5, 1, 2, 4, 6, 8 and 24 h after administration; and blood was taken from the animals in group B and D before and 0.25, 0.5, 1, 2, 4, 6, 8, 12 and 24 h after administration. Animals in group C were given TBN enteric-coated tablets at a dosage of 300 mg·animal^−1 for seven consecutive days. Blood was taken from the animals in group C before and 0.25, 0.5, 1, 2, 4, 6, 8, 12 and 24 h after the first and seventh administration and before and 2 h after the second to sixth administration.
Detection and analysis by LC-MS/MS were performed and the pharmacokinetic parameters were calculated.

[3] = beagle, dog, blood, po, Average of 3 animals
[4] = beagle, dog, blood, po, individual animal
[5] = individual animal, listed as TBN (API)
[6] = both sexes, dog, blood, beagle dogs, intravenous 6 mg · kg^−1, Mean

For Cc1nc(C)c(/C=[N+](\[O-])C(C)(C)C)nc1C [TBN, (cis)-2-methyl-N-[(3,5,6-trimethylpyrazin-2-yl)methylene)2-propylamine oxide], the AUC(0-inf) [1, 3] was 9580 ng·h/mL, the AUC(0-t) ([1]; beagle, dog, blood, po, Average of 3 animals, read-out: AUC(0-t)) was 9580 ng·h/mL and the Cmax ([1]; beagle, dog, blood, po, Average of 3 animals, read-out: Cmax) was 10100 ng/mL. For the same molecule, the MRT last [1, 3] was 49.8 min, the Vd/F [1, 3] was 1.22 L/kg and the MRT last [1, 4] was 37.2 min. For the same molecule, the Vd/F [1, 4] was 1.39 L/kg, the Tmax ([1]; dog, blood, individual animal) was 15 min and the “CLz/F” value ([1]; Average of 3 animals) was 30.2 mL/min/kg. The “T½z” value ([1]; Average of 3 animals) was 31.2 min, the “AUC (0-∞)” value [1, 5] was 5294.6 ng·h/mL and 6935.3 ng·h/mL and 16503.3 ng·h/mL and the “AUC(0-t)” value [1, 5] was 5290.7 ng·h/mL and 6935.2 ng·h/mL and 16503.2 ng·h/mL. The “CLz/F” value [1, 5] was 42.8 mL/min/kg and 33.7 mL/min/kg and 14 mL/min/kg, the “Cmax” value [1, 5] was 7280.25 ng/mL and 7291.11 ng/mL and 15646.14 ng/mL and the “MRT (0-t)” value [1, 5] was 53.4 min and 58.8 min. The “T½z” value [1, 5] was 22.8 min and 29.4 min and 42.6 min, the AUC(0-inf) [2, 6] was 3560 ng·h/mL and the C0 [2, 6] was 12100 ng/mL. It also gave a clearance [2, 6] of 29.1 mL/min/kg, a half-life [2, 6] of 17.5 min and an MRT inf ([2]; both sexes, dog, blood, beagle dogs, intravenous 6 mg · kg^−1, Mean, read-out: MRT0-inf) of 17.9 min. For the same molecule, the Vd ([2]; both sexes, dog, blood, beagle dogs, intravenous 6 mg · kg^−1, Mean, read-out: VDSS) was 0.503 L/kg and the “difference in exposure levels (C0, AUC0-t) between male and female beagle dogs” value ([2]; intravenous administration) was “no significant difference”.
